In EP4813403A1, “USE OF GLP-1R/GIPR DOUBLE-TARGET AGONIST IN PREPARING ANIMAL DRUG” (Hangzhou Zhongmeihuadong Pharmaceutical Co., Ltd., priority 2023, dated 2025):

Assays:
[1] = Pharmacokinetics in C57 mice; details: C57, mouse, in vivo
Protocol: After subcutaneous or intravenous administration to C57 mice, plasma was collected and the drug concentration in plasma was determined to illustrate the in vivo pharmacokinetic properties of the compound according to the present invention. […] 20.0 µL of thawed plasma sample was taken. 20 µL of 50% aqueous methanol solution (containing 100 ng mL^-1 Tolbutamide) and 60 µL of acetonitrile were added sequentially to precipitate protein. The mixture was vortexed for 5 minutes, and centrifuged at 4815 rpm for 8 minutes. 50.0 µL of the supernatant was taken, into which 50.0 µL of 0.5% aqueous formic acid solution was added. The mixture was vortexed for 5 minutes. 50 µL of the mixture solution was sampled and injected into the LC-MS/MS to determine the drug concentration in plasma. Based on the drug concentration in plasma of the compounds in C57 mice, the pharmacokinetic parameters were calculated by applying the software Winnolin 8.3 in a non-compartmental model, and the results were shown in Table 7 and Table 8 below. Table 7 Average Pharmacokinetic Parameters after Single Subcutaneous Administration to Mice

[2] = Repeated administration on male rats for 2 weeks (toxicity, toxicokinetics); type: in vivo, SD male rats
Protocol: 77 SD male rats (SPF grade) were selected and randomly divided into 10 groups based on body weight. Group 1 was the vehicle control group, including 5 animals. […] Group 5 to Group 7 were the groups administrated with the test substance 1; and Group 8 to Group 10 were the groups administrated with the test substance 2, each group including 8 animals, wherein 5 animals for primary test, and 3 animals for toxicokinetics test, and the administration dose was 1, 3 and 10 mg/kg respectively. Each of the above groups was continuously administered twice a week for 2 weeks (administrating at Day 1, Day 5, Day 8, Day 12 and Day 15).
During the experiment, the cage condition monitoring, detailed clinical observations, determination of the food consumption, determination of body weight, measurement of the blood biochemical and hematology indicator, investigation of the gross anatomy, weighing of the organ, studying on toxicokinetic were performed on all the groups of the animals.
Original data during each time period was tabulated. The average values and standard deviations and/or group change were calculated for each assay endpoint based on the group and sex. For each endpoint, the administrated group will be compared with the control group in the following aspect. A logarithmic conversion was performed to the endpoint data as desired prior to the start of the specific analyses.

[3] = in vivo

Structure (SMILES): CC[C@H](C)[C@H](NC(=O)[C@H](CC(C)C)NC(=O)[C@H](Cc1c[nH]c2ccccc12)NC(=O)[C@H](CCC(N)=O)NC(=O)[C@@H](NC(=O)[C@H](Cc1ccccc1)NC(=O)[C@H](C)NC(=O)[C@H](CCCCNC(=O)COCCOCCNC(=O)COCCOCCNC(=O)CC[C@H](NC(=O)CCCCCCCCCCCCCCCCCCC(=O)O)C(=O)O)NC(=O)[C@H](CCC(N)=O)NC(=O)[C@H](C)NC(=O)[C@@H](NC(=O)[C@H](CCCCN)NC(=O)[C@H](CC(=O)O)NC(=O)[C@H](CC(C)C)NC(=O)C(C)(C)NC(=O)[C@@H](NC(=O)[C@H](CO)NC(=O)[C@H](Cc1ccc(O)cc1)NC(=O)[C@H](CC(=O)O)NC(=O)[C@H](CO)NC(=O)[C@@H](NC(=O)[C@H](Cc1ccccc1)NC(=O)[C@@H](NC(=O)CNC(=O)[C@H](CCC(=O)O)NC(=O)C(C)(C)NC(=O)[C@@H](N)Cc1ccc(O)cc1)[C@@H](C)O)[C@@H](C)O)[C@@H](C)CC)[C@@H](C)CC)C(C)C)C(=O)N[C@@H](C)C(=O)NCC(=O)NCC(=O)N1CCC[C@H]1C(=O)N[C@@H](CO)C(=O)N[C@@H](CO)C(=O)NCC(=O)N[C@@H](C)C(=O)N1CCC[C@H]1C(=O)N1CCC[C@H]1C(=O)N1CCC[C@H]1C(=O)N[C@@H](CO)C(N)=O [Tirzepatide, reference compound]
- MRT ([1]; iv, MRT(0-t)): 11.4 h
- MRT ([1]; iv, MRT(0-∞)): 12 h
- MRT ([1]; sc, MRT(0-t)): 14.5 h
- MRT ([1]; sc, MRT(0-∞)): 15.3 h
- MTD ([2]; MTD for 2 weeks, rats): 2077 nmol/kg (MTD for 2 weeks)
- dose at which decrease of the body weight was observed after the first administration ([2]; SD male rats): ≥ 3 mg/kg
- Gross Anatomy ([2]; SD male rats, 1, 3, 10 mg/kg twice a week for 2 weeks): no abnormalities were found
- accumulation (toxicokinetic) ([2]; SD male rats, administered twice a week for 2 weeks): no substantial accumulation
- MTD at 336 h ([2]; Sprague-Dawley, rat, in vivo, SD male rats, administered twice a week for 2 weeks): ≥ 10 mg/kg
- Safety Window (based on dosage) ([2]; rat 2-week MTD versus efficacy dose): 416
- heart rate recovery time [3]: > 120 h
